Measurements taken from paper PMC7970304, “The Effects of Apelin and Elabela Ligands on Apelin Receptor Distinct Signaling Profiles” (Frontiers in Pharmacology, 2021).

Assays:
APJ (Apelin receptor) [1] = biological target: T1, APJ (Apelin receptor) (Homo sapiens, UniProt P35414); assay: BRET-based cAMP biosensor (CAMYEL) assay; assay type: cell-based
T1 sequence (P35414 1-380): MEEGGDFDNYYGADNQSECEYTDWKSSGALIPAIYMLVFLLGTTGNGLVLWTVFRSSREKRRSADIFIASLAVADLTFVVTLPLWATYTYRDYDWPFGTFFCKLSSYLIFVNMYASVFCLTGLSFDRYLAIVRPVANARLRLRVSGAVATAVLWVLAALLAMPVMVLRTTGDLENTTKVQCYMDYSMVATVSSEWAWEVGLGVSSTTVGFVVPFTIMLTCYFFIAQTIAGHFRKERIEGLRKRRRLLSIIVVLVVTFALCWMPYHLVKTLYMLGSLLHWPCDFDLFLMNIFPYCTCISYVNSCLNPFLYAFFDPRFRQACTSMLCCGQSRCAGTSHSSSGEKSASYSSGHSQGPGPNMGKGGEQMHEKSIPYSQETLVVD
Experimental: The cAMP concentration was measured using a BRET-based cAMP biosensor ([Barak et al., 2008]; [Ji et al., 2017]) in HEK293 cells transiently co-expressing YFP-Epac-RLuc and APJ. The sensor is composed of an N-terminal truncated variant of EPAC tagged with Rluc and YFP at N-terminal and C-terminal, respectively. […] At 24 h after transfection, cells were digested and plated into a 96-well microplate for 24 h following adding the substrate coelenterazine H into the medium at the final concentration of 5 µM and the nonspecific phosphodiesterase inhibitor IBMX (40 μM) for 20 min, and the cells were stimulated for 10 min with forskolin (10 μM).
(A) A schematic diagram of YFP-cAMP-Rluc fusion expression vector. […] Data represent mean ± SEM from four independent experiments (Supplementary Table S1).
(§1) The concentration-response data for the ligands in various assays were analyzed to determine the biases of the ligands for G protein dependent signaling or β-arrestin dependent signaling, according to a previously published method ([Kenakin et al., 2012]; [Hager et al., 2016]; [Hothersall et al., 2017]). Briefly, the concentration-response data for each ligand were fitted to the Black–Leff operation model to obtain the values of τ and K A, using the following equation: Response=[A]^nτ^nEm/[A]^nτ^n+([A]KA)^n where [A] is the concentration of the agonist, E m is the maximal response of the system, n is the transducer slope, and K A and τ describe the affinity and efficacy of the agonist, respectively. In the data fitting, the reparametrized form of the equation proposed by [Kenakin et al. (2012)] was used: Response=Em/1+exp{nln[1+exp(β1)/[A]]−nβ2} where β 1 and β 2 are the natural logarithm of K A and τ, respectively, and E m was set to 1. Thus, for each concentration-response curve, a non-linear regression was performed to fit the above equation to give β 1 and β 2 (as well as n). Log (τ/K A) values (“transduction coefficients”) for each ligand vs. each pathway were obtained. […] The ΔΔlog (τ/K A), or Log (Bias), which is the logarithm of the bias factor for a given pathway over a reference pathway (here, intracellular calcium release), was calculated for each ligand as Δlog (τ/K A)–Δlog (τ/K A)Calcium. The 95% confidence interval (CI) was expressed as the mean ± standard error; Log (Bias) values, whose 95% CI crosses 0, were considered statistically insignificant.
(§2) The data were analyzed using GraphPad Prism v5.0. All the data are presented as the mean ± SEM. Differences between groups were compared by one-way analysis of variants (ANOVA), followed by post-hoc tests (Tukey’s test), When p < 0.05, the difference was considered significant. All experiments were repeated at least four times. The dose-response curves were generated using non-linear fitting model log (agonist) vs. response (three-parameters), with Hill Slope held to 1, i.e., Y = Bottom + (Top-Bottom)/(1 + 10^(LogEC50-X)).
P<0.05 was considered as statistically significant. Control group (HG, Cells were stimulated with high glucose (Glucose Concentration: 4500 mg/L, HEPES, No Phenol Red). Data represent mean ± SEM from four independent experiments. Statistical analysis (Table S1)

APJ (Apelin receptor) [2] = biological target: T1, APJ (Apelin receptor); assay: Intracellular calcium assay (Fluo-4 NW); assay type: cell-based
Experimental: HEK293 cells stably expressing APJ were plated at 10^4 cells per well in 96-well black microplates pretreated with a 0.1 mg/ml solution of poly-D-lysine for 24 h. Calcium fluorescence signals in cells were measured using the Fluo-4 NW calcium assay kit (Thermo Fisher Scientific) according to the manufacturer’s instructions ([Chen et al., 2014]; [Wang et al., 2017]). Before detection, cells were washed twice with assay buffer (1 × HBSS, 20 mM HEPES). One hundred microlitres of the dye loading solution was added to each well of a 96-well plate. Cells were incubated at 37°C in 5% CO2 humidified atmosphere for 30 min, then at room temperature for an additional 30 min. Cells were stimulated with six ligands (100 nM) for 5 min, then calcium signals were immediately measured on a Mithras LB940 plate reader (Berthold Technologies, Bad Wildbad, Germany) with an excitation wavelength of 485 nm and an emission wavelength of 525 nm. Dose response curve: cells were stimulated with different concentrations of six peptides for 30 s, and calcium fluorescence was detected. The calculation of the calcium fluorescence ratio was described previously ([Chen et al., 2014]).
as §1, §2
HEK293 cells stably expressed APJ, and in 30 s, the dose response curve stimulated with six peptides was measured. Data represent mean ± SEM from four independent experiments (Supplementary Table S2). With six peptides (B) stimulation, the dose-response curve of GRK2 recruited to APJ was measured by BRET (at 15 min). p < 0.05 was considered as statistically significant. Data represent mean ± SEM from four independent experiments (Supplementary Table S3).
P<0.05 was considered as statistically significant. Control group (HG, Cells were stimulated with high glucose).

APJ = biological target: APJ; set-up: method as in Couvineau et al., 2020; settings: displacement of 125I-pE13F; ref Couvineau et al., 2020; cited from earlier work
[3] = Ca2+ (reference pathway), reference ligand Apelin-13

- P vs HG, cAMP production (APJ (Apelin receptor) [1]; 0.001 nM): P>0.05
- P vs HG, cAMP production (APJ (Apelin receptor) [1]; 0.01 nM): P>0.05
- P vs HG, cAMP production (APJ (Apelin receptor) [1]; 0.1 nM): P>0.05
- P vs HG, cAMP production (APJ (Apelin receptor) [1]; 1 nM): ^**P<0.01
- P vs HG, cAMP production (APJ (Apelin receptor) [1]; 10 nM): ^***P<0.001
- P vs HG, cAMP production (APJ (Apelin receptor) [1]; 100 nM): ^***P<0.001
- P vs HG, cAMP production (APJ (Apelin receptor) [1]; 1000 nM): ^***P<0.001
- Bias factor (APJ (Apelin receptor) [1]; cAMP over Ca2+, reference Apelin-13): 38.0
- Log (Bias) (APJ (Apelin receptor) [1]; cAMP over Ca2+, reference Apelin-13, footnote a = statistically insignificant): 1.6 ± 0.3
- bias over calcium release (APJ (Apelin receptor) [1]; cAMP pathway): 38 fold
- log (τ/KA) (APJ (Apelin receptor) [1]; cAMP, Black–Leff operational model): −0.1 ± 0.1
- Δlog (τ/KA) (APJ (Apelin receptor) [1]; cAMP, relative to Apelin-13): 0.0 ± 0.2
- P vs HG, intracellular calcium (APJ (Apelin receptor) [2]; 0.001 nM): P>0.05
- P vs HG, intracellular calcium (APJ (Apelin receptor) [2]; 0.01 nM): P>0.05
- P vs HG, intracellular calcium (APJ (Apelin receptor) [2]; 0.1 nM): P>0.05
- P vs HG, intracellular calcium (APJ (Apelin receptor) [2]; 1 nM): P>0.05
- P vs HG, intracellular calcium (APJ (Apelin receptor) [2]; 10 nM): ^*P<0.05
- P vs HG, intracellular calcium (APJ (Apelin receptor) [2]; 100 nM): ^***P<0.001
- P vs HG, intracellular calcium (APJ (Apelin receptor) [2]; 1000 nM): ^***P<0.001
- Bias factor (APJ (Apelin receptor) [2]; [3]): 1.0
- Log (Bias) (APJ (Apelin receptor) [2]; [3]): 0.0
- log (τ/KA) (APJ (Apelin receptor) [2]; Ca2+ pathway, Black–Leff operational model): −1.8
- Δlog (τ/KA) (APJ (Apelin receptor) [2]; Ca2+ pathway, relative to Apelin-13): −1.6
Structure (SMILES): CSCC[C@H](NC(=O)[C@@H]1CSSC[C@H](NC(=O)[C@H](CC(N)=O)NC(=O)[C@H](Cc2c[nH]cn2)NC(=O)[C@H](CCCCN)NC(=O)[C@H](CCCNC(=N)N)NC(=O)[C@@H](N)CC(C)C)C(=O)N[C@@H](CC(C)C)C(=O)N[C@@H](CCC(N)=O)C(=O)N[C@@H](CCCNC(=N)N)C(=O)N[C@@H](CCCNC(=N)N)C(=O)N1)C(=O)N1CCC[C@H]1C(=O)N[C@@H](CC(C)C)C(=O)N[C@@H](Cc1c[nH]cn1)C(=O)N[C@@H](CO)C(=O)N[C@@H](CCCNC(=N)N)C(=O)N[C@H](C(=O)N1CCC[C@H]1C(=O)N[C@@H](Cc1ccccc1)C(=O)N1CCC[C@H]1C(=O)O)C(C)C [Elabela-21]
- pKi (APJ): 9.49
